Values quoted from earlier work as cited in patent US20050163856A1, “Abuse-resistant sustained-release opioid formulation” (Roxane Laboratories, Inc., priority 1999, published 2005).
Counter-ions that a name gives are not always drawn.

Details: conventional tablet form

## COc1ccc2c3c1O[C@H]1C(=O)CC[C@@]4(O)[C@@H](C2)N(C)CC[C@]314 [Oxycodone, oxycodone (dihydrohydroxycodeinone) hydrochloride]
  half-time of absorption: about 0.4 hours
